# According to patent publication US20080233221A1, “Prostate cancer and benign prostatic hyperplasia treatments” (State of Oregon, priority 2007, published 2008):
# Key:
# Type in all cases: cell-based, human
# [1] = tested on: BPH-1 cells; assay: Cell viability by MTT assay in BPH-1 cells; conditions: BPH-1 cells, 48 h; for cell viability (number of viable cells): MTT
# Protocol: (§1) Human benign prostate hyperplasia epithelial cells (BPH-1) were obtained from Dr. Simon W. Hayward (Vanderbilt University, Nashville, Tenn.) and malignant androgen-independent prostate cancer epithelial cells (PC-3) were obtained from American Type Tissue Collection (Manassas, Va.). Cells were grown and maintained in RPMI 1640 with glutamine (Mediatech, Inc., Herndon, Va.) supplemented with 5% (BPH-1) or 10% (PC-3) fetal bovine serum (Hyclone, Logan, Utah) and 1% penicillin-streptomycin (Mediatech, Inc., Herndon, Va.). All cell types were maintained in 5% CO2 at 37° C.
# (§2) XN was isolated from hop cones as described previously (Stevens et al., J. Chromatogr. A 832 (1999) 97-107). Its oxidation product, xanthoaurenol (XAL), was prepared from xanthohumol (XN) by treatment with peroxynitrite. The structure of XAL was determined by mass spectrometry, NMR spectroscopy and X-ray diffraction analysis. Prenylflavonoids were dissolved in 100% methanol and were added to the culture medium at a final concentration of 2.5-200 μmol/L, depending on desired treatment. All treatments were done at approximately 50-70% confluency. As a control, methanol was added to culture medium equivalent to hop treatment.
# (§3) Cells were seeded into 24-well plates (50,000 cells per well). After 24 h, cells were treated with either XN or XAL as described above. Cell viability was evaluated by MTT assay as described by Mossmann et al., J. Immunol. Methods 65 (1983) 55-63. Production of formazan product was detected in a Molecular Devices SpectraMax (Molecular Devices, Sunnyvale, Calif.) at 580 nm.
# [2] = tested on: PC-3 cells; assay: Cell viability by MTT assay in PC-3 cells; conditions: PC3 cells, 48 h; for cell viability (number of viable cells): MTT
# Protocol: as §1, §2, §3
# [3] = tested on: BPH-1 cells; assay: Multicaspase assay (SR-VAD-FMK/7AAD flow cytometry) in BPH-1 cells; conditions: 48 h
# Protocol: (§4) FIG. 3 sets forth data relating to xanthohumol and xanthoaurenol induction of caspase activity in BPH-1 and PC-3 cells. Cells were treated with XN or XAL for 48 h. Induction of apoptosis was measured using a multi-caspase assay. SR-VAD-FMK covalently binds caspases and positively stained cells were assessed by flow cytometry as a measure of caspase activation. 7-Amino-actinomycin D (7AAD), a nucleotide stain that only stains cells when membrane integrity is compromised, was used to differentiate between early and late apoptotic cells. SR-VAD-FMK(+) 7AAD(−) cells are undergoing early-mid apoptosis, […] late stage apoptotic cells. Values are mean±SD, n=3. *P<0.05, **P<0.01.
# (§5) At various times after treatment with XN or XAL, adherent and floating cells were collected for analysis. Apoptosis was assessed using a flow cytometry based nexin and multicaspase assay kits (Guava Technologies, Burlingame, Calif.). The nexin assay is based on measurement of externalization of phosphatidyl serine, a common characteristic of cells undergoing apoptosis. The multicaspase assay is based on measurement of caspase enzymes activated during apoptosis. Cells were trypsinized, washed in D-PBS and stained with Annexin V, sulforhodamine-valyl-alanyl-aspartyl-fluoromethyl-ketone (SR-VAD-FMK), and 7-amino-actinomycin D (7AAD) according to the manufactures instructions. Cell populations were quantified using Guava personal cytometer (Guava Technologies, Burlingame, Calif.).
# [4] = tested on: PC-3 cells; assay: Multicaspase assay (SR-VAD-FMK/7AAD flow cytometry) in PC-3 cells; conditions: 48 h
# Protocol: as §4
# as §5, with “Cells were trypsinized, washed in D-PBS and stained with Annexin V, sulforhodamine-valyl-alanyl-aspartyl-fluoromethyl-ketone (SR-VAD-FMK), and 7-amino-actinomycin D (7AAD) according to the manufactures instructions.” left out
# [5] = tested on: BPH-1 cells; assay: Annexin V (nexin) apoptosis assay in BPH-1 cells; conditions: 20 μM
# Protocol: FIG. 4 sets forth data relating to xanthohumol and xanthoaurenol induction of apoptosis in BPH-1 and PC-3 cells. Cells were treated with XN and XAL and apoptosis was detected using the Annexin V assay. Externalization of phosphatidyl serine, an early marker of apoptosis was detected by flow cytometry after staining with Annexin V-PE and 7AAD. Annexin V(+) 7AAD(−) cells are undergoing early apoptosis, and Annexin V(+) 7AAD(+) are undergoing late apoptosis. Values are mean±SD, n=3. *P<0.05, **P<0.01.
# as §5
# [6] = tested on: BPH-1 cells; assay: Cell cycle analysis (propidium iodide flow cytometry) in BPH-1 cells; conditions: for cell cycle modification: 10 and 20 μM
# Protocol: At various time points after treatment with XN and XAL, adherent and floating cells were collected and fixed in 70% ethanol at one million cells per aliqout. Samples were centrifuged at 500×g, washed with PBS, and resuspended in cellular DNA staining solution containing […] propidium iodide (Sigma, St Louis, Mo.) and 100 μg/mL RNase (Sigma, St Louis, Mo.) in PBS. After 30-min incubation at room temperature, cell populations were quantified using Guava personal cytometer. Data analysis was performed using Multi Cycle software (Phoenix Flow Systems, San Diego, Calif.).
# In Table 1, Cells were treated with 0, 10 or 20 μM XN or XAL, as indicated, and harvested after 48 h. Attached and floating cells were fixed in 70% ethanol and stained with propidium iodide, and cell cycle kinetics were examined using the Guava PCA, followed by data analysis with Multi-Cycle software.
# [7] = tested on: NFκB; assay: NFκB activation, transcription factor binding ELISA, nuclear extracts of BPH-1 cells; conditions: 20 μM, 48 h
# Protocol: (§6) FIG. 5 sets forth data relating to xanthohumol and xanthoaurenol inhibit NFκB activation in nuclear extracts of BPH-1 cells. Cells were treated with XN or XAL for 48 h. (A) Cells were harvested by scraping and then subjected to nuclear extraction. NFκB activation was determined using transcription factor binding ELISA as described in Section 2. Equal protein loading was confirmed using β-actin. Results are representative of two or more separate experiments. (B) BPH-1 cells were treated with XN or XAL for 48 h and detection of p65 nuclear protein was performed with immunoblotting methods. (C) No inhibition of NFκB activation in treated PC3 cells. Results are mean±SD, n=3. **P<0.01.
# (§7) NFκB Activity was measured using Trans AM NFκB p65/p50 Transcription Factor Assay Kit (Active Motif, CA). Cytosolic and nuclear extracts were prepared from cells by using Nuclear Extraction Kit (Active Motif, Carlsbad, Calif.). Nuclear extract samples (10 μg) were added to a 96 well plate with immobilized oligonucleotide containing the NFκB consensus site (5′-GGGACTTTCC-3′). Sample wells were incubated with primary antibody specific for NFκB, followed by incubation with an HRP-conjugated secondary antibody, followed by quantification at OD 580 using a plate reader (Molecular Devices, Sunnyvale, Calif.).
# [8] = tested on: NFκB; assay: NFκB activation, transcription factor binding ELISA, PC3 cells
# Protocol: as §6, §7
# [9] = tested on: pro-apoptotic proteins Bax and p53 and anti-apoptotic protein Bcl-2; assay: Western blot of Bax, p53 and Bcl-2 in whole cell lysates of BPH-1 cells; conditions: for expression of pro-apoptotic protein Bax / expression of pro-apoptotic protein p53: 10 and 20 μM; for expression of pro-apoptotic protein Bax / expression of pro-apoptotic protein p53 / expression of anti-apoptotic protein Bcl-2: 48 h
# Protocol: FIG. 6 sets forth data relating to xanthohumol and xanthoaurenol induce expression of proapoptotic proteins p53 and bax, with down-regulation of antiapoptotic proteins bcl-2 in BPH-1 cells. Western blot of pro-apoptotic proteins Bax and p53 and anti-apoptotic protein Bcl-2 were performed from whole cell lysates of BPH-1 cells treated with XN and XAL for 48 h. Blots are representative of three individual experiments.
# Cells were lysed in RIPA buffer and whole cell lysate protein concentrations were determined using a detergent-compatible protein assay (BioRad, CA). Proteins (15-35 μg) were separated by SDS-PAGE under standard conditions and were transferred to a nitrocellulose membrane (Biorad, CA) at 300 mA for 2 h. Antibody dilutions were as follows: Bax (BD Pharmingen, 1:500 dilution), Bcl-2 (Santa Cruz Biotechnology, 1:1000 dilution), p53 (Santa Cruz Biotechnology, 1:1000 dilution), NFκB p65 (Santa Cruz Biotechnology, 1:1000 dilution), actin (Sigma, 1:5000 dilution). Actin was used to confirm equal protein loading between samples. Protein was detected using chemiluminescence reagents (Pierce, Rockford, Ill.) with image analysis on Alpha Innotech photodocumentation system (Alpha Innotech, Hayward, Calif.).
# [10] = tested on: NFκB p65; assay: Immunoblot of p65 nuclear protein in BPH-1 cells; conditions: 48 h
# Protocol: as §6
# Cells were lysed in RIPA buffer and whole cell lysate protein concentrations were determined using a detergent-compatible protein assay (BioRad, CA). Proteins (15-35 μg) were separated by SDS-PAGE under standard conditions and were transferred to a nitrocellulose membrane (Biorad, CA) at 300 mA for 2 h. […] Protein was detected using chemiluminescence reagents (Pierce, Rockford, Ill.) with image analysis on Alpha Innotech photodocumentation system (Alpha Innotech, Hayward, Calif.).
# [11] = Cell viability by MTT assay in BPH-1 cells; conditions: human
# Protocol: as §1, §2, §3
# [12] = Cell viability by MTT assay in PC-3 cells; conditions: human
# Protocol: as §1, §2, §3
SMILES,cell viability (number of viable cells) [1],viability decreased to ([1]; concentration of XAL not given),cell viability (number of viable cells) [2],viability decreased to ([2]; concentration of XAL not given),SR-VAD-FMK(+) 7AAD(+) cells (late apoptosis) [3],"SR-VAD-FMK(+) 7AAD(−) cells (caspase activation, early to mid stage apoptosis) [3]",SR-VAD-FMK stained cells (caspase activation) [4],Annexin V(+) 7AAD(+) cells (late apoptosis) [5],Annexin V(+) 7AAD(−) cells (early apoptosis) [5],"G1, percentage of cells in phase ([6]; 20 μM, 48 h, mean ± SE, n=3)",cell cycle modification [6],decrease in NFκB activity [7],NFκB activation [8],expression of pro-apoptotic protein Bax [9],expression of pro-apoptotic protein p53 [9],expression of anti-apoptotic protein Bcl-2 [9],NFκB p65 protein levels in the nuclear fraction [10],"cytotoxicity at 48 h, 20 μM [11]","cytotoxicity at 48 h, 20 μM [12]",increase in expression of Bax and p53 compared with XAL [9]
"COc1cc(O)c(CC=C(C)C)c2c1C(=O)/C(=C/Oc1ccc(O)cc1)O2 [XAL, xanthoaurenol]",dose-dependent decrease in number of viable,81%,dose-dependent decrease in number of viable,55%,increase,increase,increase only in late apoptotic SR-VAD-FMK(+) 7AAD(+) cells,increase,increase,45.730 ± 1.376%,clear accumulation in the S phase,42%,No inhibition,Increase,Increase,decreased expression,increased,–,–,–
"COc1cc(O)c(CC=C(C)C)c(O)c1C(=O)/C=C/c1ccc(O)cc1 [XN, xanthohumol]",dose-dependent decrease in number of viable,–,dose-dependent decrease in number of viable,–,increase,increase,increase only in late apoptotic SR-VAD-FMK(+) 7AAD(+) cells,increase,increase,–,clear accumulation in the S phase,42%,No inhibition,Increase,Increase,decreased expression,increased,80%,43%,larger increase in expression of Bax and p53 than did treatment with XAL
"O=C(O[C@@H]1Cc2c(O)cc(O)cc2O[C@@H]1c1cc(O)c(O)c(O)c1)c1cc(O)c(O)c(O)c1 [epigallocatechin gallate, reference compound]",did not significantly decrease cell viability,–,–,–,–,–,–,–,–,–,–,–,–,–,–,–,–,–,–,–
